For 16 compounds, IC50 results are on record in ChEMBL document CHEMBL1129025, “Molecular basis of peripheral vs central benzodiazepine receptor selectivity in a new class of peripheral benzodiazepine receptor ligands related to alpidem” (J Med Chem, 1996).

Assay [1] concerns the target T1, Translocator protein (Rattus norvegicus, UniProt P16257). Put plainly: Binding affinity against peripheral benzodiazepine receptor( PBR).
The target in assay [2] is T1, Translocator protein. Put plainly: Displacement of [3H]Ro-5-4864 from rat cerebral cortex peripheral benzodiazepine receptor. Type of assay: tissue-based. A general note: In a radioligand displacement assay an active substance lowers the binding of a labelled ligand.
Assay [3] concerns the target T1, Translocator protein. As to the kind of experiment: Displacement of [3H]PK11195 from rat cerebral cortex peripheral benzodiazepine receptor (type 1). It counts as tissue-based.
Assay [4] has as its target GABA-A receptor; anion channel. Put plainly: Binding affinity against central benzodiazepine receptor(CBR). It counts as protein-complex assay.
Assay [5] deals with T1, Translocator protein. Put plainly: Displacement of [3H]PK11195 from rat kidney peripheral benzodiazepine receptor (type 2).
Assay [6] has as its target T1, Translocator protein. As to the kind of experiment: Displacement of [3H]PK11195 from rat cerebral cortex peripheral benzodiazepine receptor (type 2). It counts as tissue-based.
Assay [7] deals with T1, Translocator protein. As to the kind of experiment: Displacement of [3H]PK11195 from rat kidney peripheral benzodiazepine receptor (type 1).
For assay [8], the target named is T1, Translocator protein. Put plainly: Displacement of [3H]Ro-5-4864 from rat kidney peripheral benzodiazepine receptor.
Assay [9] addresses T1, Translocator protein. As to the kind of experiment: Displacement of [3H]-PK11195 from rat kidney peripheral benzodiazepine receptor (type 2).

T1 sequence (P16257 whole entry, looked up): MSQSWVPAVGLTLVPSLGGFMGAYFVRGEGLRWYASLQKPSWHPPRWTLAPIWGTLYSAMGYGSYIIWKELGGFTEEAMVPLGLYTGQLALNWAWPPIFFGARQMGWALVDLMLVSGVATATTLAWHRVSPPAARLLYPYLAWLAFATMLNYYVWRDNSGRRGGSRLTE

The term IC50 denotes the concentration that gives 50% inhibition. The low end stands for greater potency in that assay, the high end for weaker potency in that assay. The compound `CN(Cc1ccccc1)C(=O)/C=C1\c2nc3ccccc3cc2C(=O)N1c1ccc(Cl)cc1` registered an IC50 in assay [1] of more than 1 µM.

`CCCN(CCC)C(=O)/C=C1\c2nc3ccccc3cc2C(=O)N1c1ccc(Cl)cc1`: the IC50 in [2] is 0.12 µM; in [3], 0.0049 µM; in assay [1], 0.04 µM; in [4], more than 1 µM; in assay [5], 0.16 µM; in assay [6], 0.21 µM. For the same compound, the 50% inhibitory concentration (IC50) was 0.0027 µM in assay [7] and 0.15 µM in [8].

With `CCCCCCN(CCCCCC)C(=O)CC1c2ncccc2C(=O)N1c1ccc(Cl)cc1` (centres undefined), the IC50 was 1.6 µM in assay [1] and more than 1 µM in assay [4].

For `CN(C(=O)/C=C1\c2nc3ccccc3cc2C(=O)N1c1ccc(Cl)cc1)c1ccc(Cl)cc1`, the IC50 worked out at 0.0045 µM in assay [2]; 0.0024 µM in [3]; 0.032 µM in [1]; 0.61 µM in [6]; 0.14 µM in assay [9]; 0.0011 µM in [7]. This compound also gave an IC50 in assay [8] of 0.002 µM.

Consider `COc1ccc(N(C)C(=O)/C=C2\c3nc4ccccc4cc3C(=O)N2c2ccc(Cl)cc2)cc1`, for which the IC50 in assay [2] came out at 0.0023 µM; in assay [3] it was 0.0098 µM; in assay [1] it was 0.0019 µM; in assay [5], 0.014 µM; in [6], 0.32 µM; in [7] it was 0.0007 µM. The compound further had an IC50 in assay [8] of 0.0017 µM.

For the compound `CCCN(CCC)C(=O)/C=C1\c2ncccc2C(=O)N1c1ccc(Cl)cc1`, the results for the IC50 in assay [1] and in assay [4] were 0.29 µM and more than 1 µM, respectively.

Turning to `CCCCCCN(CCCCCC)C(=O)/C=C1\c2ncccc2C(=O)N1c1ccc(Cl)cc1`, the IC50 in assay [1] was 33 µM; in assay [4], more than 1 µM.

`CCCN(CCC)C(=O)C=C1c2nc3ccccc3cc2C(=O)N1c1ccc(Cl)cc1` displayed an IC50 in [1] of more than 1 µM.

Regarding `CCN(Cc1ccccc1)C(=O)/C=C1\c2nc3ccccc3cc2C(=O)N1c1ccc(Cl)cc1`, the IC50 in [1] was more than 1 µM.

In the case of `CCCCCCN(CCCCCC)C(=O)/C=C1\c2nc3ccccc3cc2C(=O)N1c1ccc(Cl)cc1`, the IC50 in assay [1] was 0.15 µM; in [4], more than 1 µM.

On to `CCCCCCN(CCCCCC)C(=O)CC1c2nc3ccccc3cc2C(=O)N1c1ccc(Cl)cc1` (centres undefined), for which the IC50 in [1] and in assay [4] was more than 1 µM each time.

With `CCCN(CCC)C(=O)CC1c2nc3ccccc3cc2C(=O)N1c1ccc(Cl)cc1` (centres undefined), the IC50 in assay [1] and in [4] was more than 1 µM in each case.

Take `O=C1c2cccnc2CN1c1ccc(Cl)cc1`: the IC50 in [1] and in [4] was more than 1 µM throughout.

For the compound `CCCN(CCC)C(=O)CC1c2ncccc2C(=O)N1c1ccc(Cl)cc1` (centres undefined), the IC50 is more than 1 µM in assay [1] and 0.86 µM in assay [4].

On to `CCCN(CCC)C(=O)Cc1c(-c2ccc(Cl)cc2)nc2ccc(Cl)cn12` [ALPIDEM], for which the values for the half-maximal inhibitory concentration (IC50) in assay [1] and in assay [4] were 0.007 µM and 0.028 µM, respectively.

In turn, `CN1CCN(C(=O)OC2c3nccnc3C(=O)N2c2ccc(Cl)cn2)CC1` (centres undefined) [ZOPICLONE] returned an IC50 in [4] of 0.029 µM.
